Measured values from US5434136A, “Treatment of motility disorders with a GNRH analog” (priority 1992, dated 1995).
Like-named read-outs stand apart in the source and are kept apart here.

Key:
[1] = tested on: functional bowel disease (IIHVN), ovaries removed; assay: Effective dose of leuprolide acetate in patients having previous ovariectomy; format: in vivo, human
Description: Two patients discussed in Example 1 were women who had undergone surgery for removal of their ovaries. The first patient, Number 3, had undergone this surgery approximately two years prior to beginning Leuprolide acetate treatment. The second patient, Number 4, underwent ovariectomy 18 months […] beginning treatment with Leuprolide Acetate. In both cases, the effective dose of leuprolide acetate was higher than the effective dose required by patients who had not had ovaries removed.

end-stage scleroderma = assay: Treatment of end stage scleroderma with leuprolide acetate; format: in vivo, human; conditions: Patient 6, 0.5 mg daily s.c.
Procedure: Patient number 6 was in end-stage scleroderma. They had been bed-ridden for approximately eight months, unable to retain food after eating, and was being maintained on total parental hyperalimentation (TPN) to keep up body weight and fluid and electrolyte balance for five months. This patient was treated with 0.5 mg Leuprolide acetate daily, by subcutaneous injection according to the protocol of example 1.

[2] = tested on: migrating motor complexes, jejunum; assay: Leuprolide acetate effects on migrating motor complexes in rats; format: in vivo, female Wistar rats; conditions: for Migrating Motor Complexes, L-Fasted / Migrating Motor Complexes, L-Fed: mean ± SEM
Procedure: Eleven female Wistar rats weighing between 175 and 250 g were each implanted with four bipolar Ag/AgCL electrodes (the preparation of which is described in: Mathias, Am. J. Physiology, 249:[…]-[…], 1981). The electrodes were sewn 5 cm from the Ligament of Trietz and 5 cm apart, onto the jejunal serosa. The number of migrating myoelectric complexes was recorded using a R-612 Dynograph (Sensor-Medics, Anaheim, Calif.). Rats were fasted for 36 hours prior to recording and feeding (no food, liberal water), and were housed in special cages to remove feces. After 36 hours of fasting, Migrating Motor Complexes (MMC) were recorded at a sensitivity of 0.2 mV/cm, 2.5 mm/sec paper speed, and a Time Constant of 1 for a duration of 2 to 4 hours. Immediately following the fasted recording session, the rats were fed 2 biscuits of Purina rat chow with simultaneous recording during feeding and continued for 4 hours. This procedure was followed for 2 to 4 recording sessions prior to the treatment with leuprolide acetate (Controls). Leuprolide acetate was then administered daily, in the morning, subcutaneously in the hind limb at a dose ranging from 2 to 40 ug/100 g body weight. After a period of at least 24 hours post treatment with leuprolide, the fasting/fed recording sessions were begun as described for the controls to obtain recordings through 2 to 4 sessions.

[3] = tested on: functional bowel disorders; format: in vivo, human
Description: The symptoms of the two patients with GMD were abdominal pain located in the right upper quadrant and epigastrium, daily nausea, and intermittent vomiting exacerbated by eating and by the luteal phase of the menstrual cycle. The two patients with IIHVN had abdominal pain, nausea, and intermittent vomiting, and also had urinary tract involvement consisting of pain and a decrease in urination. The fifth patient had Roux-en-Y syndrome (defined as epigastric-to-right-upper-quadrant pain, nausea, and vomiting increased by eating) after surgical construction of a gastro-jejunal Roux-en-Y anastomosis. The mean duration of these symptoms was eight years (Table 1). All subjects had undergone extensive blood testing, several upper gastrointestinal x-ray series, barium enemas, esophagogastroduodenoscopy, endoscopic retrograde cholangiopancreatography, gastric emptying tests with radiolabeled meal, ultrasound of the abdomen, computerized axial tomography of the abdomen, and many other tests. The results of all tests were normal, except for prolonged gastric emptying in the patient with the Roux-en-Y Syndrome. Because of their intractable clinical problem, these patients were included in the test protocol with leuprolide acetate. Protocol: The symptoms of each patient were first assessed, and their tests evaluated. Each patient kept a daily symptom diary. Leuprolide acetate was obtained by prescription as Lupron (TAP pharmaceuticals, Abbott Labs, North Chicago, Ill.). One multi-use vial of Lupron comprised of […] Leuprolide Acetate. A daily dose of 0.5 mg ([…]) was self-administered by subcutaneous injection, for a period of three months. Each patient was examined at 0, 1 and 3 months of treatment. After the third month, leuprolide was continued as previously, and estrogen (0.625 mg orally) and calcium (1000 mg orally) were also administered. At the end of the sixth month, a two week withdrawal period from leuprolide acetate ensued. During this period a 10 mg oral dose of progesterone was given to pre-menopausal patients, to assess recurrence of symptoms and to induce menses. Post-menopausal women were not treated with progesterone during the two week withdrawal period. This procedure was then continued for an additional six months, with drug withdrawal and progesterone given every three months to induce a menstrual cycle. Serum estradiol, progesterone, FSH, and LH were quantitated by radioimmunoassay prior to the initiation of leuprolide treatment, and at three months post treatment initiation. The procedure of example 1 was followed with additional patients. […] One patient listed as a failure elected to withdraw from the program after four weeks of treatment. One patient after recovering from the symptoms of their autonomic neuropathy expired from a massive myocardial infarction (Responded--expired). These patients were treated with Leuprolide acetate following the protocol established in Example 1.

Q: What does the source list for `CCNC(=O)[C@@H]1CCCN1C(=O)[C@H](CCCNC(=N)N)NC(=O)[C@H](CC(C)C)NC(=O)[C@@H](CC(C)C)NC(=O)[C@H](Cc1ccc(O)cc1)NC(=O)[C@H](CO)NC(=O)[C@H](Cc1c[nH]c2ccccc12)NC(=O)[C@H](Cc1c[nH]cn1)NC(=O)[C@@H]1CCC(=O)N1` [Leuprolide acetate, leuprolide acetate]?
A: Daily dose needed to overcome symptoms ([1]; Patient 3, ovaries removed, initially 0.5 mg): 2.0 mg; Effective daily dose that relieved symptoms ([1]; Patient 4, post-ovariectomy): 2.0 mg; Sufficiency of daily dose of 0.5 mg ([1]; Patient 4, post-ovariectomy): not sufficient; Symptoms at daily dose of 0.5 mg ([1]; Patient 4, prior to the removal of their ovaries): symptom free; Effective dose compared with patients who had not had ovaries removed ([1]; Patients 3 and 4): higher; Eating and body weight at discharge (end-stage scleroderma): eating without difficulty, and had gained weight; Need for TPN feeding after five weeks of therapy (end-stage scleroderma): did not require the TPN feeding; Mobility after five weeks of therapy (end-stage scleroderma; bed-ridden before): able to move about actively; Migrating Motor Complexes, L-Fasted ([2]; 2 μg/100 g body weight s.c. daily, control fasted 4.69 ± 0.24): 4.60 ± 0.12 MMC/hour; Migrating Motor Complexes, L-Fed ([2]; 2 μg/100 g body weight s.c. daily, control fed 2.60 ± 0.27): 4.83 ± 0.65 MMC/hour; Migrating Motor Complexes, L-Fasted ([2]; 20 μg/100 g body weight s.c. daily, control fasted 4.43 ± 0.25): 5.41 ± 0.17 MMC/hour; Migrating Motor Complexes, L-Fed ([2]; 20 μg/100 g body weight s.c. daily, control fed 1.40 ± 0.48): 4.11 ± 0.22 MMC/hour; Migrating Motor Complexes, L-Fasted ([2]; 40 μg/100 g body weight s.c. daily, control fasted 4.75 ± 0.48): 4.48 ± 0.12 MMC/hour; Migrating Motor Complexes, L-Fed ([2]; 40 μg/100 g body weight s.c. daily, control fed 2.33 ± 0.33): 3.45 ± 0.25 MMC/hour; Dose at which the fed state was replaced by cycling MMCs (as little as) ([2]; fed rats): 2 μg/100 g body weight; Duration of therapy until symptom free ([3]; Patient 7): ≤ 8 weeks; Response ([3]; Patient 7, Pelvic Floor Dysfunction): symptom free; Response ([3]; Patient 7, Pelvic Floor Dysfunction, listed as leuprolide): Responded; Response ([3]; Patient 8, Chronic Intestinal Pseudo Obstruction, listed as leuprolide): Responded; Response ([3]; Patient 8, Chronic Intestinal Pseudo Obstruction, listed as leuprolide acetate): does not chronically experience severe symptoms; Hospital admissions since therapy was begun ([3]; Patient 8, before: at least one week per month in hospital): no hospital admissions; Response ([3]; Patient 9, Roux-en-Y-Syndrome): Responded; Response ([3]; Patient 10, Roux-en-Y-Syndrome, withdrew): Failure; Response ([3]; Patient 11, Chronic Intestinal Pseudo Obstruction, side effects): Failure; Response ([3]; Patient 12, Roux-en-Y-Syndrome, expired): Failure; Need for parental alimentation for weight control ([3]; Patient 13): no longer requires parental alimentation; Urination ([3]; Patient 13): improved; Response ([3]; Patient 13, Idiopathic Intestinal Hollow Visceral Myopathy/Neuropathy, protocol of example 1): improved dramatically; Response ([3]; Patient 13, Idiopathic Intestinal Hollow Visceral Myopathy/Neuropathy, protocol of example 1, listed as leuprolide): Responded; Response ([3]; Patient 14, Pelvic Floor Dysfunction): Failure; Need for parental supplementation ([3]; Patient 15): requires no parental supplementation; Response ([3]; Patient 15, Chronic Intestinal Pseudo Obstruction): steadily improved; Response ([3]; Patient 15, Chronic Intestinal Pseudo Obstruction, listed as leuprolide): Responded; Response ([3]; Patient 16, Roux-en-Y-Syndrome): relieved; Response ([3]; Patient 16, Roux-en-Y-Syndrome, listed as leuprolide): Responded; Body weight maintained under therapy ([3]; Patient 16, weight before 96 pounds): 115-118 pounds; Theophylline requirement for lung disease ([3]; Patient 17): smaller dose of Theophylline is now required; Response ([3]; Patient 17, Gastrointestinal Motor Dysfunction, protocol of example 1): abated; Response ([3]; Patient 17, Gastrointestinal Motor Dysfunction, protocol of example 1, listed as leuprolide): Responded; Pulmonary function tests ([3]; Patient 17, chronic obstructive lung disease): dramatic improvement; Response ([3]; Patient 18, Idiopathic Intestinal Hollow Visceral Myopathy/Neuropathy, protocol of example 1): all of their symptoms have improved except for their obstipation; Response ([3]; Patient 18, Idiopathic Intestinal Hollow Visceral Myopathy/Neuropathy, protocol of example 1, listed as leuprolide): Responded; Duration of therapy after which all symptoms had disappeared ([3]; Patient 19): 6 weeks; Response ([3]; Patient 19, Gastrointestinal Motor Dysfunction, protocol of example 1, listed as leuprolide): Responded; Course after the drug was discontinued ([3]; Patient 19, discontinued after six months of treatment): no recurrent disease; Response ([3]; Patient 20, Gastrointestinal Motor Dysfunction, protocol of example 1): symptom-free; Response ([3]; Patient 20, Gastrointestinal Motor Dysfunction, protocol of example 1, listed as leuprolide): Responded; Response ([3]; Patient 21, Gastrointestinal Motor Dysfunction): Responded; Swallowing and eating ([3]; Patient 22): now able to swallow and eat; Response ([3]; Patient 22, Gastrointestinal Motor Dysfunction, response seen after three weeks of therapy): dramatic response; Response ([3]; Patient 22, Gastrointestinal Motor Dysfunction, response seen after three weeks of therapy, listed as leuprolide): Responded; Need of opiates for pain ([3]; Patient 23): did not require opiates for pain; Response ([3]; Patient 23, Roux-en-Y-Syndrome): Responded; Response ([3]; Patient 23, Roux-en-Y-Syndrome, listed as Lupron): symptom free; Side effects leading to withdrawal from treatment ([3]; human, in vivo): bone pain; Number of patients who failed to respond ([3]; of the twenty-six treated to date): Four; Response of the majority of patients ([3]; twenty-six patients treated to date): full recovery
